In patent US5741811A, “Polythiophene anti-tumor agents” (Purdue Research Foundation, priority 1996, dated 1998):

Experiments:
HOP-62 lung cancer cells = assay: NCI human tumor cell line panel growth inhibition; assay type: cell-based; conditions: Homo sapiens, read-out: Log10 GI50 (converted)
[1] = system: NCI-H23 lung cancer cells; assay: NCI human tumor cell line panel growth inhibition; assay type: cell-based; conditions: read-out: Log10 GI50 (converted)
[2] = system: NCI-H226 lung cancer cells; assay: NCI human tumor cell line panel growth inhibition; assay type: cell-based; conditions: Homo sapiens, read-out: Log10 GI50 (converted)
[3] = system: NCI-H460 lung cancer cells; assay: NCI human tumor cell line panel growth inhibition; assay type: cell-based; conditions: Homo sapiens, read-out: Log10 GI50 (converted)
[4] = system: NCI-H522 lung cancer cells; assay: NCI human tumor cell line panel growth inhibition; assay type: cell-based; conditions: read-out: Log10 GI50 (converted)
[5] = system: COLO-205 colon cancer cells; assay: NCI human tumor cell line panel growth inhibition; assay type: cell-based; conditions: Homo sapiens; COLO-205, colon cancer; read-out: Log10 GI50 (converted)
[6] = system: HCC-2998 colon cancer cells; assay: NCI human tumor cell line panel growth inhibition; assay type: cell-based; conditions: Homo sapiens, read-out: Log10 GI50 (converted)
[7] = system: HCT-15 colon cancer cells; assay: NCI human tumor cell line panel growth inhibition; assay type: cell-based; conditions: Homo sapiens, read-out: Log10 GI50 (converted)
HT29 colon cancer cells = assay: NCI human tumor cell line panel growth inhibition; assay type: cell-based; conditions: Homo sapiens, HT-29, read-out: Log10 GI50 (converted)
[8] = system: OVCAR-8 ovarian cancer cells; assay: NCI human tumor cell line panel growth inhibition; assay type: cell-based; conditions: Homo sapiens, read-out: Log10 GI50 (converted)
Description: (§1) The first screen measures the cytotoxicity against a panel of sixty different human tumor cell lines. This assay provides data regarding the general cytotoxicity of an individual compound.
(§2) The length of a bar is indicative of differential cytotoxicity against a specific type of tumor cells or tumor panels.
(§3) The antitumor cytotoxicity of the thiophene compounds tested in the first two in vitro assays was measured by a microculture assay using either 3-(4,5-dimethylthiazol-2-yl)-2,5-diphenyltetrazolium bromide (MTT) or sulforhodamine B (SRB). [M. R. Boyd in "Principles and Practices of Oncology," V. T. DeVita, Jr., S. Hellman and S. A. Rosenberg (Eds.), Vol. 3, PPO Updates, Number 10, 1989.] This assay has an advantage over in vivo assay in that results are obtained within a week as opposed to several months. The assay was carried out in 96-well microtiter plates. The MTT assay is based on the production of a dark blue formazan product by dehydrogenase in the mitochondria of live tumor cells after exposure to drug for 6 days [M. C. Alley, D. A. Scudiero, A. Monks, M. L. Hursey, M. J. Czerwinski, D. L. Fine, B. J. Abbott, J. G. Mayo, R. H. Shoemaker and M. R. Boyd, Cancer Res., 48, 589, 1988.] Thus, only live cells are stained and can be measured at 570 nm. The SRB assay is based on the binding of the anionic group to the basic amino acid residues of cellular proteins after exposure of tumor cells to drug for 2 days [P. Skehan, R. Storeng, D. Scudiero, A. Monks, J. McMahon, D. Vistica, J. T. Warren, H. Bohesch, S. Kenney and M. R. Boyd, J. Nat. Cancer Inst., 82, 1107, 1990.] Thus, the total protein (viability) can be measured at 564 nm.

[9] = system: SW-620 colon cancer cells; assay: NCI human tumor cell line panel growth inhibition; assay type: cell-based; conditions: Homo sapiens, read-out: Log10 GI50 (converted)
Description: as §1, §2, §3

SF-295 CNS cancer cells = assay: NCI human tumor cell line panel growth inhibition; assay type: cell-based; conditions: read-out: Log10 GI50 (converted)
U251 CNS cancer cells = assay: NCI human tumor cell line panel growth inhibition; assay type: cell-based; conditions: Homo sapiens, U-251, read-out: Log10 GI50 (converted)
MALME-3M melanoma cells = assay: NCI human tumor cell line panel growth inhibition; assay type: cell-based; conditions: read-out: Log10 GI50 (converted)
M-14 melanoma cells = assay: NCI human tumor cell line panel growth inhibition; assay type: cell-based; conditions: M14, read-out: Log10 GI50 (converted)
[10] = system: BT-549 breast cancer cells; assay: NCI human tumor cell line panel growth inhibition; assay type: cell-based; conditions: read-out: Log10 GI50 (converted)
Excerpt: (§4) The cytotoxic activity of the present polythiophene compounds have been measured utilizing three different assays or screens. The first screen measures the cytotoxicity against a panel of sixty different human tumor cell lines. This assay provides data regarding the general cytotoxicity of an individual compound. In particular this type of assay is useful in identifying compounds which have enhanced cytotoxic activity against slow growing tumors as compared to faster growing tumor cells such as leukemia tumor cell lines. The identification of such compounds is critical since previously identified antitumor agents have low cytotoxic activity against slower growing tumors. […] The specificity of a cytotoxic compound for tumor cell lines relative to normal cells is an important characteristic of an effective antitumor agent.
as §2, §3

[11] = system: DU-145 prostate cancer cells; assay: NCI human tumor cell line panel growth inhibition; assay type: cell-based; conditions: read-out: Log10 GI50 (converted)
Excerpt: as §4, §2, §3

[12] = system: HS 578T breast cancer cells; assay: NCI human tumor cell line panel growth inhibition; assay type: cell-based; conditions: read-out: Log10 GI50 (converted)
Excerpt: as §4, §2, §3

KM12 colon cancer cells = assay: NCI human tumor cell line panel growth inhibition; assay type: cell-based; conditions: Homo sapiens, read-out: Log10 GI50 (converted)
Excerpt: as §4, §2, §3

MCF7 breast cancer cells = assay: NCI human tumor cell line panel growth inhibition; assay type: cell-based; conditions: read-out: Log10 GI50 (converted)
Excerpt: as §4, §2, §3

[13] = system: MCF7/ADR-RES breast cancer cells; assay: NCI human tumor cell line panel growth inhibition; assay type: cell-based; conditions: read-out: Log10 GI50 (converted)
Excerpt: as §4, §2, §3

[14] = system: MDA-MB-435 breast cancer cells; assay: NCI human tumor cell line panel growth inhibition; assay type: cell-based; conditions: read-out: Log10 GI50 (converted)
Excerpt: as §4, §2, §3

[15] = system: MDA-N breast cancer cells; assay: NCI human tumor cell line panel growth inhibition; assay type: cell-based; conditions: read-out: Log10 GI50 (converted)
Excerpt: as §4, §2, §3

[16] = system: PC-3 prostate cancer cells; assay: NCI human tumor cell line panel growth inhibition; assay type: cell-based; conditions: read-out: Log10 GI50 (converted)
Excerpt: as §4, §2, §3

SK-MEL-28 melanoma cells = assay: NCI human tumor cell line panel growth inhibition; assay type: cell-based; conditions: read-out: Log10 GI50 (converted)
Excerpt: as §4, §2, §3

SK-MEL-5 melanoma cells = assay: NCI human tumor cell line panel growth inhibition; assay type: cell-based; conditions: read-out: Log10 GI50 (converted)
Excerpt: as §4, §2, §3

[17] = system: IGROV-1 ovarian cancer cells; assay: NCI human tumor cell line panel growth inhibition; assay type: cell-based; conditions: Homo sapiens, read-out: Log10 GI50 (converted)
786-0 renal cancer cells = assay: NCI human tumor cell line panel growth inhibition; assay type: cell-based; conditions: read-out: Log10 GI50 (converted)
ACHN renal cancer cells = assay: NCI human tumor cell line panel growth inhibition; assay type: cell-based; conditions: read-out: Log10 GI50 (converted)
[18] = system: RXF-393 renal cancer cells; assay: NCI human tumor cell line panel growth inhibition; assay type: cell-based; conditions: Homo sapiens, read-out: Log10 GI50 (converted)
SN12C renal cancer cells = assay: NCI human tumor cell line panel growth inhibition; assay type: cell-based; conditions: read-out: Log10 GI50 (converted)
TK-10 renal cancer cells = assay: NCI human tumor cell line panel growth inhibition; assay type: cell-based; conditions: Homo sapiens, read-out: Log10 GI50 (converted)
UO-31 renal cancer cells = assay: NCI human tumor cell line panel growth inhibition; assay type: cell-based; conditions: read-out: Log10 GI50 (converted)
[19] = system: T-47D breast cancer cells; assay: NCI human tumor cell line panel growth inhibition; assay type: cell-based; conditions: T47D, read-out: Log10 GI50 (converted)
Description: The assay was carried out in 96-well microtiter plates. The MTT assay is based on the production of a dark blue formazan product by dehydrogenase in the mitochondria of live tumor cells after exposure to drug for 6 days [M. C. […] The SRB assay is based on the binding of the anionic group to the basic amino acid residues of cellular proteins after exposure of tumor cells to drug for 2 days [P. Skehan, R. Storeng, D. Scudiero, A. Monks, J. McMahon, D. Vistica, J. T. Warren, H. Bohesch, S. Kenney and M. R. Boyd, J. Nat.

[20] = water

Q: With OCc1cc(-c2ccc(-c3cccs3)s2)sc1CO as the compound, how does the GI50 (HOP-62 lung cancer cells) read?
A: Its GI50 is 20 µM.

Q: What about the GI50 [1] of the same compound?
A: Its GI50 is 38.9 µM.

Q: And the GI50 [2]?
A: The GI50 was 0.257 µM.

Q: And the GI50 [3]?
A: The GI50 was 5.62 µM.

Q: What about the GI50 [4] of the same compound?
A: The GI50 was 33.9 µM.

Q: And the GI50 [5]?
A: The GI50 was 5.89 µM.

Q: And the GI50 [6]?
A: Its GI50 is 0.316 µM.

Q: What about the GI50 [7] of the same compound?
A: Its GI50 is 28.2 µM.

Q: And the GI50 (HT29 colon cancer cells)?
A: Its GI50 is 18.6 µM.

Q: What about the GI50 [8] of the same compound?
A: The GI50 was 50.1 µM.

Q: What about the GI50 [9] of the same compound?
A: Its GI50 is 40.7 µM.

Q: What about the GI50 (SF-295 CNS cancer cells) of the same compound?
A: Its GI50 is 33.9 µM.

Q: And the GI50 (U251 CNS cancer cells)?
A: The GI50 was 69.2 µM.

Q: And the GI50 (MALME-3M melanoma cells)?
A: The GI50 was 29.5 µM.

Q: And the GI50 (M-14 melanoma cells)?
A: Its GI50 is 51.3 µM.

Q: What about the GI50 [10] of the same compound?
A: Its GI50 is 83.2 µM.

Q: And the GI50 [11]?
A: Its GI50 is 55 µM.

Q: What about the GI50 [12] of the same compound?
A: Its GI50 is 52.5 µM.

Q: What about the GI50 (KM12 colon cancer cells) of the same compound?
A: The GI50 was 16.6 µM.

Q: What about the GI50 (MCF7 breast cancer cells) of the same compound?
A: The GI50 was 0.178 µM.

Q: What about the GI50 [13] of the same compound?
A: Its GI50 is 57.5 µM.

Q: And the GI50 [14]?
A: The GI50 was 15.1 µM.

Q: What about the GI50 [15] of the same compound?
A: The GI50 was 5.37 µM.

Q: What about the GI50 [16] of the same compound?
A: The GI50 was 49 µM.

Q: And the GI50 (SK-MEL-28 melanoma cells)?
A: The GI50 was 39.8 µM.

Q: And the GI50 (SK-MEL-5 melanoma cells)?
A: The GI50 was over 10 µM.

Q: And the GI50 [17]?
A: The GI50 was 0.229 µM.

Q: What about the GI50 (786-0 renal cancer cells) of the same compound?
A: Its GI50 is 52.5 µM.

Q: What about the GI50 (ACHN renal cancer cells) of the same compound?
A: Its GI50 is 56.2 µM.

Q: What about the GI50 [18] of the same compound?
A: Its GI50 is 8.71 µM.

Q: And the GI50 (SN12C renal cancer cells)?
A: The GI50 was 46.8 µM.

Q: And the GI50 (TK-10 renal cancer cells)?
A: Its GI50 is 20.9 µM.

Q: What about the GI50 (UO-31 renal cancer cells) of the same compound?
A: Its GI50 is 64.6 µM.

Q: And the GI50 [19]?
A: Its GI50 is 0.427 µM.

Q: For NCc1ccc(-c2ccc(-c3cccs3)s2)s1 [NSC Code 652866, aminomethylterthiophene], which “aminomethylterthiophene dissolved by 1 mL of H2O (as cyclodextrin complex)” value [20] is on record?
A: The value was “up to 77 mg”.
